From ChEMBL document CHEMBL3137667, “[Drug-induced liver injury; fourteenth updated edition of the bibliographic database of liver injuries and related drugs]” (Gastroenterol Clin Biol, 2004)

Key:
[1] = human
[2] = human, serum
[3] = human; remark: listed apart in the source
[4] = Times to onset, minimal and maximal, observed in the indexed observations. [column 'DELAI' in source]; settings: human
[5] = human; remark: listed apart in the source
[6] = human, serum, 4383 h
[7] = human; remark: listed apart in the source
[8] = Highest frequency of moderate liver toxicity observed during clinical trials, expressed as a percentage. [column '% BIOL' in source]; settings: human
[9] = human; remark: listed apart in the source
[10] = Highest frequency of acute liver toxicity observed during clinical trials, expressed as a percentage. [column '% AIGUE' in source]; settings: human
[11] = human; remark: listed apart in the source
[12] = human; remark: listed apart in the source
[13] = human; remark: listed apart in the source
[14] = human; remark: listed apart in the source
[15] = human, serum; remark: listed apart in the source
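For Hepatotoxicity (association with vascular disease) in this document: count of indexed literature references reporting vascular liver injury in humans, e.g. peliosis hepatitis, hepatic veno-occlusive disease or Budd-Chiari syndrome.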
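For Hepatotoxicity (benign tumour) in this document: value is a count of indexed literature references citing a benign tumour confirmed by histopathology.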
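For Hepatotoxicity (choleostasis) in this document: human cholestatic liver injury, shown by histopathology or by peak ALT or AST elevation over alkaline phosphatase ratio below 2, value counts indexed literature reports.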
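For Hepatotoxicity (chronic liver disease) in this document: chronic liver injury confirmed by histopathology or persistently raised serum aminotransferase activity beyond 6 months, value given as the count of indexed literature references.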
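For Hepatotoxicity (cirrhosis) in this document: value is a count of indexed literature references reporting cirrhosis confirmed by histopathology.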
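For Hepatotoxicity (cytolytic) in this document: human cytolytic liver injury, shown by histopathology or by a ratio above 5 of peak ALT or AST elevation to alkaline phosphatase elevation, value counts indexed references.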
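For Hepatotoxicity (granulomatous hepatitis) in this document: value is a count of indexed literature references reporting granulomatous liver disease confirmed by histopathology.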
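For Hepatotoxicity (malignant tumour) in this document: malignant tumour confirmed by histopathology, value gives the count of indexed literature references reporting it.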
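For Hepatotoxicity (severe hepatitis) in this document: human clinical data: severe hepatitis, meaning potentially life-threatening liver failure or clinically observed cases, the value counts how many indexed literature references report it.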
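For Hepatotoxicity (steatosis) in this document: steatosis confirmed by histopathology, value is the count of indexed references.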

Row | SMILES | Hepatotoxicity (cytolytic) [1] | Hepatotoxicity (moderate) [2] | Hepatotoxicity (malignant tumour) [3] | Hepatotoxicity (time to onset) [4] | Hepatotoxicity (benign tumour) [5] | Hepatotoxicity (chronic liver disease) [6] | Hepatotoxicity (cirrhosis) [7] | Hepatotoxicity (moderate) [8] [%] | Hepatotoxicity (choleostasis) [9] | Hepatotoxicity (acute) [10] [%] | Hepatotoxicity (steatosis) [11] | Hepatotoxicity (association with vascular disease) [12] | Hepatotoxicity (granulomatous hepatitis) [13] | Hepatotoxicity (severe hepatitis) [14] | Hepatotoxicity (acute) [15] | further results
1 | C[C@H]1CC(=O)C[C@@H]2CC[C@H]3[C@@H]4CC[C@H](O)[C@@]4(C)CC[C@@H]3[C@]21C [MESTEROLONE] | 1 | 0 | 0 | 2 years | 0 | 0 | 0 | 0 | 0 | 0 | 0 | 0 | 0 | 0 | 1 | –
2 | CNC1Cc2ccccc2N(C)c2ccccc21 (stereo not given) [METAPRAMINE] | 1 | 0 | 0 | 3 weeks - 3 months | 0 | 0 | 0 | 0 | 1 | 0 | 1 | 0 | 0 | 0 | 1 | –
3 | C=C1c2cccc(O)c2C(=O)C2=C(O)[C@]3(O)C(=O)C(C(N)=O)=C(O)[C@@H](N(C)C)[C@@H]3[C@@H](O)[C@H]12 [METHACYCLINE] | 1 | 0 | 0 | 7 months - 1 year | 0 | 0 | 0 | 0 | 0 | 0 | 0 | 0 | 0 | 0 | 1 | –
4 | COc1cccc(OC)c1C(=O)N[C@@H]1C(=O)N2[C@@H]1SC(C)(C)[C@@H]2C(=O)O [METHICILLIN] | 0 | 1 | 0 | 3 days - 3 weeks | 0 | 0 | 0 | 18.7 | 0 | 0 | 0 | 0 | 0 | 0 | 0 | –
5 | CC[C@@H](CO)NC(=O)[C@@H]1C=C2c3cccc4[nH]cc(c34)C[C@H]2N(C)C1 [METHYLERGONOVINE] | 0 | 1 | 0 | 3 h | 0 | 0 | 0 | 0 | 0 | 0 | 0 | 0 | 0 | 0 | 0 | –
6 | CC[C@@H](CO)NC(=O)[C@@H]1C=C2c3cccc4c3c(cn4C)C[C@H]2N(C)C1 [METHYSERGIDE] | 0 | 1 | 0 | 5 years | 0 | 0 | 0 | 0 | 0 | 0 | 0 | 0 | 0 | 0 | 0 | –
7 | Cc1ccc2c(c1)C(N1CCN(C)CC1)=Nc1ccccc1S2 [METIAPINE] | 1 | 2 | 0 | 2 weeks - 2 months | 0 | 0 | 0 | 0 | 0 | 0 | 0 | 0 | 0 | 0 | 1 | –
8 | CCN(CC)CCNC(=O)c1cc(Cl)c(N)cc1OC [METOCLOPRAMIDE] | 1 | 2 | 0 | 2 days - 4 months | 0 | 0 | 0 | 6 | 0 | 0 | 0 | 1 | 0 | 0 | 1 | –
9 | Cc1ccccc1N1C(=O)c2cc(S(N)(=O)=O)c(Cl)cc2NC1C (stereo not given) [METOLAZONE] | 0 | 0 | 0 | 8 days - 3 months | 0 | 0 | 0 | 0 | 1 | 0 | 0 | 0 | 1 | 1 | 2 | –
10 | CS(=O)(=O)c1ccc2c(c1)N(CCCN1CCC(C(N)=O)CC1)c1ccccc1S2 [METOPIMAZINE] | 1 | 0 | 0 | 1 month | 0 | 0 | 0 | 0 | 1 | 0 | 0 | 0 | 0 | 0 | 1 | –
11 | CC1(C)S[C@@H]2[C@H](NC(=O)[C@H](NC(=O)N3CCN(S(C)(=O)=O)C3=O)c3ccccc3)C(=O)N2[C@H]1C(=O)O [MEZLOCILLIN] | – | 6 | 0 | 2 weeks - 3 weeks | 0 | 0 | 0 | – | – | – | 0 | 0 | – | – | 1 | Hepatotoxicity (cytolytic) ([1]; Liver): 0; Hepatotoxicity (moderate) ([8]; Liver): 25%; Hepatotoxicity (choleostasis) ([9]; Liver): 1; Hepatotoxicity (acute) ([10]; Liver): 0%; Hepatotoxicity (granulomatous hepatitis) ([13]; Liver): 0; Hepatotoxicity (severe hepatitis) ([14]; Liver): 0
